Laboratory results taken from patent US11000033B2, “Ketone or oxime compound, and herbicide” (NISSAN CHEMICAL CORPORATION, priority 2014, dated 2021).

Key:
Format in all cases: in vivo
Stellaria media = assay: Test Example 5: herbicidal effect by foliage application, plastic box (symbol P); settings: 320 g/ha, 3 weeks after application
How it was run: (§1)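 Seeds were sown in sterilized diluvial soil, covered with about 1.5 cm of soil and grown 14 days in a greenhouse at 25° C. to 30° C. An emulsifiable formulation diluted in water to a set rate was sprayed over foliage, and injury was scored 3 weeks later.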

Leptochloa chinensis = assay: Test Example 3: herbicidal effect by foliage application, Wagner pot (symbol D); settings: application herbicide amount 320 g/ha
How it was run: (§2)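 Foliar spray of water-diluted emulsion formulation at a predetermined herbicide amount onto 14-day-old plants in flooded alluvial soil (water depth 0.1–0.5 cm), greenhouse 25–30 °C; rice sown alongside. Scored 3 wk post-application on set criteria.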

transplanted rice plant = assay: Test Example 1: effect on crop, application before weed generation in submerged conditions (symbol a); settings: application herbicide amount 320 g/ha
How it was run: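 Alluvial soil pots flooded to 4 cm water, sown with Echinochloa oryzacola, Scirpus juncoides and Monochoria vaginalis, then transplanted with 2.5 leaf stage rice seedlings; pre-emergence application. Greenhouse 25° C. to 30° C.; scored 0–5 by herbicidal ratio 3 weeks after application.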

beet = assay: Test Example 5: effect on crop by foliage application, plastic box (symbol f); settings: 320 g/ha, 3 weeks after application
How it was run: (§3)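 Sterilized diluvial soil, plastic box (21 × 13 × 7 cm); spot sowing, ~1.5 cm soil cover; greenhouse 25–30° C.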

[1] = tested on: Echinochloa oryzacola Vasing.; assay: Test Example 1: herbicidal activity, application before weed generation in submerged conditions (symbol A); settings: application herbicide amount 320 g/ha
How it was run: (§4)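 0–5 visual score, 3 wk post-application. Submerged pots, alluvial soil, water 4 cm; seeds sown mixed, rice at 2.5 leaves transplanted. Emulsion diluted to predetermined dose, applied to water surface at sowing. 25–30 °C greenhouse.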

[2] = tested on: Echinochloa crus-galli var. crus-galli; assay: Test Example 3: herbicidal effect by foliage application, Wagner pot (symbol H); settings: application herbicide amount 320 g/ha
How it was run: as §2

Scirpus juncoides = assay: Test Example 1: herbicidal activity, application before weed generation in submerged conditions (symbol B); settings: application herbicide amount 320 g/ha
How it was run: as §4

Apera spica-venti = assay: Test Example 5: herbicidal effect by foliage application, plastic box (symbol L); settings: 320 g/ha, 3 weeks after application
How it was run: as §1

Avena fatua = assay: Test Example 5: herbicidal effect by foliage application, plastic box (symbol I); settings: 320 g/ha, 3 weeks after application
How it was run: as §1

Chenopodium album = assay: Test Example 5: herbicidal effect by foliage application, plastic box (symbol O); settings: 320 g/ha, 3 weeks after application
How it was run: as §1

[3] = tested on: directly sowed rice plant; assay: Test Example 3: effect on crop by foliage application, Wagner pot (symbol b); settings: application herbicide amount 320 g/ha
How it was run: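 Alluvial soil in a 1/10000-are Wagner pot was flooded to a water depth of 0.1–0.5 cm. Echinochloa crus-galli var. crus-galli, Leptochloa chinensis, Cyperus difformis and rice were sown into it and grown in a greenhouse at 25–30 °C.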

Amaranthus retroflexus = assay: Test Example 5: herbicidal effect by foliage application, plastic box (symbol N); settings: 320 g/ha, 3 weeks after application
How it was run: as §1

Alopecurus myosuroides = assay: Test Example 5: herbicidal effect by foliage application, plastic box (symbol J); settings: 320 g/ha, 3 weeks after application
How it was run: as §1

Monochoria vaginalis = assay: Test Example 1: herbicidal activity, application before weed generation in submerged conditions (symbol C); settings: application herbicide amount 320 g/ha
Description: Herbicidal Activity Test by Application Before Weed Generation in Submerged Conditions
After alluvial soil was placed into 1/10000 are of Wagner pot, water was poured and mixed to form a submerged condition having a water depth of 4 cm. Seeds of Echinochloa oryzacola Vasing., Scirpus juncoides, and Monochoria vaginalis were sowed in a mixed manner in the above pot and thereafter 2.5 leaf stage rice plant seedlings were transplanted thereto. On the day of sowing seeds, the emulsion agent of the compound of the present invention prepared in accordance with Formulation Example 2 was diluted with water so as to be a predetermined herbicide amount and the diluted emulsion agent was applied to the surface of the water. The pot was placed in a greenhouse of 25° C. to 30° C. to grow plant. 3 weeks later from the herbicide application, the effect to each plant was investigated in accordance with the following criteria.
5 Herbicidal ratio of 90% or more (almost completely withered)
4 Herbicidal ratio of 70% or higher and lower than 90%
3 Herbicidal ratio of 40% or higher and lower than 70%
2 Herbicidal ratio of 20% or higher and lower than 40%
1 Herbicidal ratio of 5% or higher and lower than 20%
0 Herbicidal ratio of 5% or lower (almost no effect)

rapeseed = assay: Test Example 5: effect on crop by foliage application, plastic box (symbol g); settings: 320 g/ha, 3 weeks after application
How it was run: as §3

Cyperus difformis = assay: Test Example 3: herbicidal effect by foliage application, Wagner pot (symbol E); settings: application herbicide amount 320 g/ha
How it was run: as §2

Lolium multiflorum Lam. = assay: Test Example 5: herbicidal effect by foliage application, plastic box (symbol K); settings: 320 g/ha, 3 weeks after application
How it was run: as §1

corn = assay: Test Example 5: effect on crop by foliage application, plastic box (symbol c); settings: 320 g/ha, 3 weeks after application
How it was run: as §3

soybean = assay: Test Example 5: effect on crop by foliage application, plastic box (symbol d); settings: 320 g/ha, 3 weeks after application
How it was run: as §3

Galium spurium = assay: Test Example 5: herbicidal effect by foliage application, plastic box (symbol Q); settings: 320 g/ha, 3 weeks after application
How it was run: as §1

Veronica persica = assay: Test Example 5: herbicidal effect by foliage application, plastic box (symbol R); settings: 320 g/ha, 3 weeks after application
How it was run: as §1

Setaria viridis = assay: Test Example 5: herbicidal effect by foliage application, plastic box (symbol G); settings: 320 g/ha, 3 weeks after application
How it was run: as §1

wheat = assay: Test Example 5: effect on crop by foliage application, plastic box (symbol e); settings: 320 g/ha, 3 weeks after application
How it was run: as §3

Digitaria ciliaris = assay: Test Example 5: herbicidal effect by foliage application, plastic box (symbol F); settings: 320 g/ha, 3 weeks after application
How it was run: as §1

rice plant = assay: Test Example 5: effect on crop by foliage application, plastic box (symbol b); settings: 320 g/ha, 3 weeks after application
How it was run: as §3

Abutilon theophrasti = assay: Test Example 5: herbicidal effect by foliage application, plastic box (symbol M); settings: 320 g/ha, 3 weeks after application
How it was run: as §1

[4] = tested on: Echinochloa crus-galli var. crus-galli; assay: Test Example 5: herbicidal effect by foliage application, plastic box (symbol H); settings: 320 g/ha, 3 weeks after application
How it was run: as §1

CC(CC1CC(OC(=O)N(C)C)=C(c2c(C)cc(-c3ccc(Cl)cc3)cc2C)C1=O)=NOCC(F)(F)F (mixture of isomers) [9-026]
P: Stellaria media, herbicidal effect grade (Stellaria media): 0 (Herbicidal ratio of 5% or lower (almost no effect))
D (Leptochloa chinensis) herbicidal effect grade (Leptochloa chinensis; Table 24): 3 (Herbicidal ratio of 40% or higher and lower than 70%)
a (transplanted rice plant) effect on crop grade (transplanted rice plant): 0 (Herbicidal ratio of 5% or lower (almost no effect))
f: beet, effect on crop grade (beet): 0 (Herbicidal ratio of 5% or lower (almost no effect))
A (Echinochloa oryzacola Vasing.) herbicidal effect grade [1]: 4 (Herbicidal ratio of 70% or higher and lower than 90%)
H (Echinochloa crus-galli var. crus-galli) herbicidal effect grade ([2]; Table 24): 0 (Herbicidal ratio of 5% or lower (almost no effect))
B (Scirpus juncoides) herbicidal effect grade (Scirpus juncoides): 0 (Herbicidal ratio of 5% or lower (almost no effect))
L: Apera spica-venti, herbicidal effect grade (Apera spica-venti): 0 (Herbicidal ratio of 5% or lower (almost no effect))
I: Avena fatua, herbicidal effect grade (Avena fatua): 3 (Herbicidal ratio of 40% or higher and lower than 70%)
O: Chenopodium album, herbicidal effect grade (Chenopodium album): 0 (Herbicidal ratio of 5% or lower (almost no effect))
b (directly sowed rice plant) effect on crop grade ([3]; Table 24): 0 (Herbicidal ratio of 5% or lower (almost no effect))
N: Amaranthus retroflexus, herbicidal effect grade (Amaranthus retroflexus): 0 (Herbicidal ratio of 5% or lower (almost no effect))
J: Alopecurus myosuroides, herbicidal effect grade (Alopecurus myosuroides): 0 (Herbicidal ratio of 5% or lower (almost no effect))
C (Monochoria vaginalis) herbicidal effect grade (Monochoria vaginalis): 0 (Herbicidal ratio of 5% or lower (almost no effect))
g: rapeseed, effect on crop grade (rapeseed): 0 (Herbicidal ratio of 5% or lower (almost no effect))
E herbicidal effect grade (Cyperus difformis; Table 24): 0 (Herbicidal ratio of 5% or lower (almost no effect))
K: Lolium multiflorum Lam., herbicidal effect grade (Lolium multiflorum Lam.): 0 (Herbicidal ratio of 5% or lower (almost no effect))
c: corn, effect on crop grade (corn): 5 (Herbicidal ratio of 90% or more (almost completely withered))
d: soybean, effect on crop grade (soybean): 0 (Herbicidal ratio of 5% or lower (almost no effect))
Q: Galium spurium, herbicidal effect grade (Galium spurium): 0 (Herbicidal ratio of 5% or lower (almost no effect))
R: Veronica persica, herbicidal effect grade (Veronica persica): 0 (Herbicidal ratio of 5% or lower (almost no effect))
G: Setaria viridis, herbicidal effect grade (Setaria viridis): 4 (Herbicidal ratio of 70% or higher and lower than 90%)
e: wheat, effect on crop grade (wheat): 0 (Herbicidal ratio of 5% or lower (almost no effect))
F: Digitaria ciliaris, herbicidal effect grade (Digitaria ciliaris): 5 (Herbicidal ratio of 90% or more (almost completely withered))
b: directly sowed rice plant, effect on crop grade (rice plant): 0 (Herbicidal ratio of 5% or lower (almost no effect))
M: Abutilon theophrasti, herbicidal effect grade (Abutilon theophrasti): 0 (Herbicidal ratio of 5% or lower (almost no effect))
H: Echinochloa crus-galli var. crus-galli, herbicidal effect grade [4]: 0 (Herbicidal ratio of 5% or lower (almost no effect))

CC(=O)CC1CC(O)=C(c2c(C)cc(-n3ccnc3)cc2C)C1=O (centres unmarked) [7-025]
P: Stellaria media, herbicidal effect (criteria of Test Example 1) (Stellaria media): 0 (Herbicidal ratio of 5% or lower (almost no effect))
herbicidal effect on D (Leptochloa chinensis), grade 0-5 (Leptochloa chinensis): 3 (Herbicidal ratio of 40% or higher and lower than 70%)
f: beet, effect on crop (criteria of Test Example 1) (beet): 0 (Herbicidal ratio of 5% or lower (almost no effect))
herbicidal effect on H (Echinochloa crus-galli var. crus-galli), grade 0-5 [2]: 1 (Herbicidal ratio of 5% or higher and lower than 20%)
L: Apera spica-venti, herbicidal effect (criteria of Test Example 1) (Apera spica-venti): 0 (Herbicidal ratio of 5% or lower (almost no effect))
I: Avena fatua, herbicidal effect (criteria of Test Example 1) (Avena fatua): 0 (Herbicidal ratio of 5% or lower (almost no effect))
O: Chenopodium album, herbicidal effect (criteria of Test Example 1) (Chenopodium album): 0 (Herbicidal ratio of 5% or lower (almost no effect))
effect on crop b (directly sowed rice plant), grade 0-5 [3]: 0 (Herbicidal ratio of 5% or lower (almost no effect))
N: Amaranthus retroflexus, herbicidal effect (criteria of Test Example 1) (Amaranthus retroflexus): 0 (Herbicidal ratio of 5% or lower (almost no effect))
J: Alopecurus myosuroides, herbicidal effect (criteria of Test Example 1) (Alopecurus myosuroides): 0 (Herbicidal ratio of 5% or lower (almost no effect))
g: rapeseed, effect on crop (criteria of Test Example 1) (rapeseed): 0 (Herbicidal ratio of 5% or lower (almost no effect))
herbicidal effect on E, grade 0-5 (Cyperus difformis): 0 (Herbicidal ratio of 5% or lower (almost no effect))
K: Lolium multiflorum Lam., herbicidal effect (criteria of Test Example 1) (Lolium multiflorum Lam.): 0 (Herbicidal ratio of 5% or lower (almost no effect))
c: corn, effect on crop (criteria of Test Example 1) (corn): 0 (Herbicidal ratio of 5% or lower (almost no effect))
d: soybean, effect on crop (criteria of Test Example 1) (soybean): 0 (Herbicidal ratio of 5% or lower (almost no effect))
Q: Galium spurium, herbicidal effect (criteria of Test Example 1) (Galium spurium): 0 (Herbicidal ratio of 5% or lower (almost no effect))
R: Veronica persica, herbicidal effect (criteria of Test Example 1) (Veronica persica): 0 (Herbicidal ratio of 5% or lower (almost no effect))
G: Setaria viridis, herbicidal effect (criteria of Test Example 1) (Setaria viridis): 0 (Herbicidal ratio of 5% or lower (almost no effect))
e: wheat, effect on crop (criteria of Test Example 1) (wheat): 0 (Herbicidal ratio of 5% or lower (almost no effect))
F: Digitaria ciliaris, herbicidal effect (criteria of Test Example 1) (Digitaria ciliaris): 3 (Herbicidal ratio of 40% or higher and lower than 70%)
b: directly sowed rice plant, effect on crop (criteria of Test Example 1) (rice plant): 0 (Herbicidal ratio of 5% or lower (almost no effect))
M: Abutilon theophrasti, herbicidal effect (criteria of Test Example 1) (Abutilon theophrasti): 0 (Herbicidal ratio of 5% or lower (almost no effect))
H: Echinochloa crus-galli var. crus-galli, herbicidal effect (criteria of Test Example 1) [4]: 0 (Herbicidal ratio of 5% or lower (almost no effect))
